Results: PMC5942844, “Identification and characterization of the Fasciola hepatica sodium- and chloride-dependent taurine transporter” (PLoS Neglected Tropical Diseases, 2018)
Where two headings read alike, the source gives them in different places.

How the values were obtained:
[1] = biological target: T1, human taurine transporter (HsTauT) (Homo sapiens, UniProt P31641); experiment: [3H]taurine uptake by HEK293 cells stably expressing the human taurine transporter; settings: for EC50: 0.1 μM [3H]taurine; for IC50: IC50 of unlabeled taurine for [3H]taurine uptake
T1 sequence (P31641 1-620): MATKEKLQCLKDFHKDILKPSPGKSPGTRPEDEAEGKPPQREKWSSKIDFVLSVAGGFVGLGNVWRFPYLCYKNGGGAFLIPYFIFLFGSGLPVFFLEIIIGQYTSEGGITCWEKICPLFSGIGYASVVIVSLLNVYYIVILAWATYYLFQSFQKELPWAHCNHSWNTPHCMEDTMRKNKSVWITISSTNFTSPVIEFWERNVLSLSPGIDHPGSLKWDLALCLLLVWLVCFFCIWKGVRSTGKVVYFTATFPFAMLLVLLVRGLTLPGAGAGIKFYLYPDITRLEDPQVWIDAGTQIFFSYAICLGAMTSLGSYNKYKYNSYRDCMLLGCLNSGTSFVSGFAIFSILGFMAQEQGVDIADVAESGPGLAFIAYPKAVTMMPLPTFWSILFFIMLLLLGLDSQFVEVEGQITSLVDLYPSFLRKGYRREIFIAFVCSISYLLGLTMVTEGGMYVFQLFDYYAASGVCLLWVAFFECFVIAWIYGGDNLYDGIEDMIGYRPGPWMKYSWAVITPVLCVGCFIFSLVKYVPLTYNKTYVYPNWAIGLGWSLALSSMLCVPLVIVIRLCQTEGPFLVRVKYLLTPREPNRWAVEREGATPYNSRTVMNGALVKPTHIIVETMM
Description: (§1) Human embryonic kidney-293 (HEK293 (ATCC CRL-1573, LGC standards Wesel, Germany)) cells, were grown in Dulbecco`s modified Eagle medium (DMEM) supplemented with 10% fetal bovine serum (FCS Nuaille, France), 100 units/ml penicillin and 100 μg/ml streptomycin at 37°C and with 5% CO2 in a humidified incubator. Cells were transfected with plasmids encoding fluorescently tagged or untagged versions of F. hepatica (FhTauT) and H. sapiens (HsTauT) taurine transporter using Jet Prime transfection reagent (Polyplus-transfection, France). To generate monoclonal cell lines stably expressing the transporters, transfected cells were subjected to and selected with the concentration of 0.2 mg/ml geneticin (G418) for 10 days. Surviving cells forming colonies were separated and analyzed for membrane localization of transporters and transport of taurine. After the selection process cells were kept at 50 μg/ml G418 to keep the selection pressure.
(§2) For saturation uptake experiments, cells were plated the day before the experiment at a density of about 50,000 cells/well onto poly (D-lysine)-coated 48-well culture plates (CytoOne, USA). On the day of the experiment, cells were washed with prewarmed Krebs-HEPES buffer twice (KHB) (120 mM NaCl, 3 mM KCl, 2 mM CaCl2, 2 mM MgCl2, 20 mM glucose, 10 mM HEPES, pH 7.3). Then, cells were incubated in KHB containing tracer amounts (0.1 μM) of [^3H]taurine, (19.1 Ci/mmol) (Perkin Elmer, USA) together with increasing concentrations of non-labeled taurine 10 min. The reaction was terminated after 10 minutes by removing the medium followed by rapid rinsing of cells with ice-cold assay buffer. Subsequently, cells were lysed with 0.5 ml of 1% sodium dodecyl sulfate (SDS) and transferred into scintillation vials for liquid scintillation counting. Non-specific uptake was determined by incubating cells in the presence of the blocker β-alanine (100 mM) before and during the experiment and subtracted from uptake values. Data were fit to a Michaelis-Menten equation.
(§3) Chloride-free KHB was prepared to examine the chloride dependence of both, FhTauT and HsTauT using acetate salts instead of chloride salts. Likewise, NaCl was replaced by choline chloride to examine the sodium requirement. Uptake experiments were performed as described above using 0.1 μM [^3H]taurine in sodium- and chloride-free modified KHB, respectively, mixed with increasing amounts of NaCl containing KHB thereby varying Na^+ and respectively Cl^- concentration from 0–120 mM. The inhibition experiments were performed in analogous manner with 0.1 μM [^3H]taurine and the logarithmically spaced concentrations of inhibitors.

[2] = biological target: T2, F. hepatica taurine transporter (FhTauT) (Fasciola hepatica, UniProt A0A2R4LGM2); experiment: cell-based; settings: for EC50: 0.1 μM [3H]taurine; for IC50: IC50 of unlabeled taurine for [3H]taurine uptake; for inhibition of the transporter (taurine uptake): inhibitors of GABA uptake or GABA degradation
T2 sequence (A0A2R4LGM2 1-647): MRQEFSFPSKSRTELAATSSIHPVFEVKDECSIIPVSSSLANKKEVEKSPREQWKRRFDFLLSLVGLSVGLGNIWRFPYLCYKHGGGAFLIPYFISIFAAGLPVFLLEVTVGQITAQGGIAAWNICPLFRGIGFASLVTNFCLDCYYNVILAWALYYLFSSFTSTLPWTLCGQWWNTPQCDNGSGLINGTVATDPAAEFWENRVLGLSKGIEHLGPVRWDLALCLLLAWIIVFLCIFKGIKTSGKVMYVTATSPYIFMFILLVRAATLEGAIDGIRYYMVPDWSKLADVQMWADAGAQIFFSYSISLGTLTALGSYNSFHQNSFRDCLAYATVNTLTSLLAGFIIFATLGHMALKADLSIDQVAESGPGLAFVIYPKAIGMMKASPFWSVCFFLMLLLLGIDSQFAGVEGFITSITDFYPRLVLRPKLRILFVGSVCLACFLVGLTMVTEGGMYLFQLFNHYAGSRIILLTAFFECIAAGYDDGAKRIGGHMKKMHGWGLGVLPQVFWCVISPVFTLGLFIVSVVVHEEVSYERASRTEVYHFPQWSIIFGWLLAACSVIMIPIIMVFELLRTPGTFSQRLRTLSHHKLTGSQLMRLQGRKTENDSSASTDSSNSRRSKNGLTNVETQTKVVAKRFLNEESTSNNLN
Description: as §1, §2, §3

[3] = test system: adult F. hepatica; format: cell-based; settings: for time all flukes alive and motile: Hédon-Fleig medium; for survival of flukes: 4 h
Description: Fig 8 Survival of adult F. hepatica in bile acid-containing medium in the presence and absence of taurine. A: Adult flukes (12 flukes/condition in individual wells) were incubated at 37°C and 5% CO2 in a humidified atmosphere in Hédon Feig medium in the absence (control, closed circles) or presence of 50 μM taurine (closed circle), of 2 mM GES (GES, closed triangle) or of bile acids (closed triangle, 5 mM cholic acid, 1.5 mM deoxycholic acid and 0.5 mM chenodeoxycholic acid). The number of dead flukes was recorded at the indicated time points. B: Adult flukes were incubated at 37°C and 5% CO2 in a humidified atmosphere in Hédon Feig medium in the absence (control) or presence of bile acids (5 mM cholic acid, 1.5 mM deoxycholic acid and 0.5 mM chenodeoxycholic acid). Where indicated, the medium contained, in addition, 50 μM taurine or the combination of 50 μM taurine and 2 mM GES (GES) for 4h. The number of dead flukes was recorded at the end of the incubation period. The data are from three independent experiments with 11 to 12 flukes/condition. […] Thus, after Bonferroni correction for multiple testing (with α≤0.016), taurine afforded a statistically significant protection against bile acids.
F. hepatica was isolated from the bile ducts of cows slaughtered at Alpenrind GmbH (Salzburg, Austria). Flukes were kept in modified Hedon Fleig`s solution at 37°C and 5% CO2 in a humidified atmosphere. Before the experiment, flukes were maintained at 37°C for three days after extraction to clear them from bile acids. Living flukes (judged by observing movement after gently tapping them with metal forceps) were transferred into flasks containing either Hedon Fleig`s Solution alone or Hedon Fleig`s Solution supplemented with combinations of bile acids (5 mM cholic acid (CA), 1.5 mM deoxycholic acid (DCA) and […] chenodeoxycholic acid (CDC)), 50 μM taurine and 2 mM guanidinoethyl sulfonate (GES). Survival of flukes was determined again after four hours of treatment.

[4] = substrate: NCCS(=O)(=O)O; experiment: cells, lysate or membranes; settings: other: 10 min uptake, HEK293 cells; pH 7.3; 37.0 °C
[5] = read-out: EC50 of chloride for substrate uptake (apparent affinity), chloride replaced with acetate
[6] = read-out: EC50 of chloride for substrate uptake (apparent affinity), chloride replaced with acetate, listed as Cl^-
[7] = HEK293, read-out: residual [3H]taurine uptake
[8] = read-out: EC50 of Na+ for half-maximum stimulation of transport, sodium replaced with choline

Cl [chloride]
EC50 [1, 5]: 54.8 ± 6.9 mM
EC50 [1, 6]: 55 ± 7 mM
EC50 [2, 5]: 13.9 ± 3.1 mM
EC50 [2, 6]: 14 ± 3 mM

NC(N)=NCCS(=O)(=O)O [GES, guanidinoethyl sulfonate]
time all flukes alive and motile ([3]; 2 mM GES alone): at least 6 h
survival of flukes ([3]; bile acids plus 50 μM taurine plus 2 mM GES): 44%
mode of inhibition of taurine uptake ([1]; Dixon plot, parallel lines): competitive inhibition
mode of inhibition of taurine uptake ([2]; Dixon plot, intersecting lines): non-competitive inhibitor
remaining activity at 1000 µM [2, 7]: ~75%
remaining activity at 3000 µM [2, 7]: ~40%
affinity of F. hepatica transporter relative to human transporter ([2]; comparison of residual uptake, Fig 6A vs 6C): about ten-fold lower

NCCS(=O)(=O)O [taurine, 2-aminoethanesulfonic acid]
time all flukes alive and motile ([3]; 50 μM taurine alone): at least 6 h
survival of flukes ([3]; bile acids plus 50 μM taurine): about 80%
IC50 ([1]; absence of GES): 0.0412 ± 0.0082 mM
IC50 ([1]; presence of 0.1 mM GES): 0.0521 ± 0.0095 mM
IC50 ([1]; presence of 0.3 mM GES): 0.0989 ± 0.0201 mM
maximum velocity of uptake ([1]; [3H]taurine, HEK293 cells): 971.0 ± 60.3 pmol*10^−6 cells*min^-1
IC50 ([2]; absence of GES): 0.0117 ± 0.0041 mM
IC50 ([2]; presence of 1 mM GES): 0.0187 ± 0.0067 mM
IC50 ([2]; presence of 3 mM GES): 0.016 ± 0.0042 mM
maximum velocity of uptake ([2]; [3H]taurine, HEK293 cells): 178 ± 2 pmol*10^−6 cells*min^-1
[3H]taurine accumulation relative to untransfected control cells ([2]; transfected vs untransfected HEK293 cells): about 10 fold

Cc1ccsc1C(=CCCN1CCC[C@@H](C(=O)O)C1)c1sccc1C [tiagabine]
inhibition of the transporter (taurine uptake) [2]: failed to inhibit

C=CC(N)CCC(=O)O (stereo not drawn) [vigabatrin]
inhibition of the transporter (taurine uptake) [2]: failed to inhibit

[Na+] [Na^+]
EC50 [1, 8]: 56.5 ± 7.1 mM
Hill coefficient of sodium saturation curve ([1]; sodium replaced with choline): 2.3±0.1
EC50 [2, 8]: 51.4 ± 6 mM
Hill coefficient of sodium saturation curve ([2]; sodium replaced with choline): 1.6±0.1

B1: F. hepatica taurine transporter (FhTauT) (Fasciola hepatica) (protein)
chain: T2 sequence (A0A2R4LGM2 1-647)
Km [4]: 12.0 ± 0.5 µM

B2: human taurine transporter (HsTauT) (Homo sapiens) (protein)
chain: T1 sequence (P31641 1-620)
Km [4]: 41.0 ± 10.4 µM
